# Test system: SEM cells
# Test: cell viability relative to DMSO control; higher = less cytotoxic
# Conditions: 48 h
# Method in brief: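 In 1536-well plates, 5 μl of leukemia cells were seeded per well: 500 cells/well for NOMO1 or SEM and 1000 cells/well for P12-Ichikawa. Each line had first been adapted for at least four passages in each medium. Library compounds in DMSO were pin-dosed at 11 threefold concentrations between 47 μM and 0.79 nM, and CellTiter-Glo One luminescence was read after 48 h at 37°C. Viability is a per-plate percentage relative to DMSO wells, with cell-free wells as background.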
# [1] = HPLM + 10% dialyzed FBS, 0.000781 µM
# [2] = HPLM + 10% dialyzed FBS, 0.00234 µM
# [3] = HPLM + 10% dialyzed FBS, 0.00702 µM
# [4] = HPLM + 10% dialyzed FBS, 0.0211 µM
# [5] = HPLM + 10% dialyzed FBS, 0.0632 µM
# [6] = HPLM + 10% dialyzed FBS, 0.19 µM
# [7] = HPLM + 10% dialyzed FBS, 0.569 µM
# [8] = HPLM + 10% dialyzed FBS, 1.71 µM
# [9] = HPLM + 10% dialyzed FBS, 5.12 µM
# [10] = HPLM + 10% dialyzed FBS, 15.4 µM
# [11] = HPLM + 10% dialyzed FBS, 46.1 µM
# [12] = RPMI 5 mM glucose + 10% FBS, 0.000781 µM
# [13] = RPMI 5 mM glucose + 10% FBS, 0.00234 µM
# [14] = RPMI 5 mM glucose + 10% FBS, 0.00702 µM
# [15] = RPMI 5 mM glucose + 10% FBS, 0.0211 µM
# [16] = RPMI 5 mM glucose + 10% FBS, 0.0632 µM
# [17] = RPMI 5 mM glucose + 10% FBS, 0.19 µM
# [18] = RPMI 5 mM glucose + 10% FBS, 0.569 µM
# [19] = RPMI 5 mM glucose + 10% FBS, 1.71 µM
# [20] = RPMI 5 mM glucose + 10% FBS, 5.12 µM
# [21] = RPMI 5 mM glucose + 10% FBS, 15.4 µM
# [22] = RPMI 5 mM glucose + 10% FBS, 46.1 µM
# [23] = RPMI 5 mM glucose + 10% dialyzed FBS, 0.000781 µM
# [24] = RPMI 5 mM glucose + 10% dialyzed FBS, 0.00234 µM
# [25] = RPMI 5 mM glucose + 10% dialyzed FBS, 0.00702 µM
# [26] = RPMI 5 mM glucose + 10% dialyzed FBS, 0.0211 µM
# [27] = RPMI 5 mM glucose + 10% dialyzed FBS, 0.0632 µM
# [28] = RPMI 5 mM glucose + 10% dialyzed FBS, 0.19 µM
# [29] = RPMI 5 mM glucose + 10% dialyzed FBS, 0.569 µM
# [30] = RPMI 5 mM glucose + 10% dialyzed FBS, 1.71 µM
# [31] = RPMI 5 mM glucose + 10% dialyzed FBS, 5.12 µM
# [32] = RPMI 5 mM glucose + 10% dialyzed FBS, 15.4 µM
# [33] = RPMI 5 mM glucose + 10% dialyzed FBS, 46.1 µM
Structure (SMILES),cell viability [1],cell viability [2],cell viability [3],cell viability [4],cell viability [5],cell viability [6],cell viability [7],cell viability [8],cell viability [9],cell viability [10],cell viability [11],cell viability [12],cell viability [13],cell viability [14],cell viability [15],cell viability [16],cell viability [17],cell viability [18],cell viability [19],cell viability [20],cell viability [21],cell viability [22],cell viability [23],cell viability [24],cell viability [25],cell viability [26],cell viability [27],cell viability [28],cell viability [29],cell viability [30],cell viability [31],cell viability [32],cell viability [33]
CCOc1cc(CC(=O)N[C@@H](CC(C)C)c2ccccc2N2CCCCC2)ccc1C(=O)O,83.9%,104%,121%,106%,116%,109%,122%,117%,132%,125%,119%,103%,110%,109%,109%,106%,108%,118%,134%,127%,129%,123%,105%,113%,123%,127%,109%,114%,119%,137%,130%,128%,134%
CCN1CCN(C(=O)Cc2ccc(Nc3ncc(F)c(Nc4ccc(C(=O)Nc5ccccc5Cl)cc4)n3)cc2)CC1,79.1%,90.8%,97.2%,111%,109%,107%,108%,83.1%,61.2%,33.6%,27.6%,81.8%,108%,103%,108%,118%,105%,101%,82.4%,58.8%,11.5%,8.62%,80.4%,89.3%,111%,97.6%,116%,118%,101%,81.6%,54.4%,19.1%,14.6%
COc1cc(C(=O)NS(=O)(=O)c2ccccc2C)ccc1Cc1cn(C)c2ccc(NC(=O)OC3CCCC3)cc12,59.7%,55.9%,66.9%,73.4%,87.5%,90%,80.7%,70%,64.4%,62.6%,5.13%,85.4%,83.3%,73.3%,63.4%,92.4%,85.2%,39.6%,70.5%,78.9%,71.3%,4.48%,69.7%,54.8%,64.2%,76.6%,77.9%,83.2%,62.4%,76.5%,63%,72.5%,5.4%
CNC(=O)Nc1ccc(-c2nc(N3CC4CCC(C3)O4)c3cnn(C4CCC5(CC4)OCCO5)c3n2)cc1,109%,106%,97.8%,83.9%,73.8%,53.6%,58.1%,53%,45.9%,34.3%,36.9%,76.6%,77.9%,65.6%,51%,43.2%,36.8%,40.1%,34%,25.3%,22.9%,14.5%,105%,106%,88.7%,80.7%,71.6%,56.2%,59.4%,53.9%,39.6%,31.3%,41.4%
Cc1ccc2c(c1)c1c(n2CCc2ccc(C)nc2)CCN(C)C1,110%,124%,120%,122%,133%,131%,117%,121%,135%,120%,106%,116%,117%,145%,147%,148%,155%,140%,127%,138%,134%,109%,–,–,–,–,–,–,–,–,–,–,–
